# Target: Factor D (Homo sapiens, UniProt P00746)
# Assay: Factor D esterolytic assay (Z-Lys-SBzl thioester substrate, DTNB, 405 nm)
# Format: biochemical
# Conditions: substrate Z-Lys-SBzl 1.29 mM, 100 mM HEPES, 500 mM NaCl, pH 7.5, 10% DMSO, tested a minimum of three times
# Description: The IC50 value of a compound (i.e., the concentration of the compound that inhibits 50% of the enzymatic activity) was calculated according to the procedure reported in U.S. Pat. No. 6,653,340 B1, e.g., column 74 (incorporated by reference).
# Specifically, the compounds were dissolved in a stock solution of DMSO at 10.0 or 100 mM. A portion of this stock solution was added to assay buffer in a final volume of 50 μL. Controls included buffer alone and enzyme solutions to which DMSO was added. Substrate was added to the reaction wells immediately or after incubation at room temperature. The reaction rates were measured spectrophotometrically by the generation of product at 405 nm for 600 sec. Background absorbance at 690 nm was measured and subtracted from the absorbance at 405 nm for each well.
# The reaction rate for enzyme alone was compared to the rate of enzyme in the presence of inhibitor and the percent inhibition was calculated as shown below: Percent Inhibition=[Rate without inhibitor−Rate with inhibitor)/(Rate without inhibitor)]−100 Factor D Esterolytic Assay:
# An established esterolytic assay for the measurement of Factor D activity and inhibition of Factor D activity was used (Kam, C. M.; McRae, B. J.; Harper, J. W.; Niemann, M. A.; Volanakis, J. E.; Powers, J. C. Human complement proteins D. C2, and B Active site mapping with peptide thioester substrates. J Biol. Chem. 1987, 262, 3444-3451). For this assay Z-Lys-SBzl, 1.29 mM (Kim, S.; Narayana, S. V. L; Volanakis, J. E. Mutational analysis of the substrate binding site of human complement Factor D. Biochemistry, 1994, 33, 14393-14399) was used as the substrate for Factor D ([…]). Hydrolysis of this compound by Factor D liberated a free sulfhydryl group which is then reacted with 5,5′-dithiobis(2-nitrobenzoic acid) producing an intense yellow color (Habeeb, A. F. S. A. Reaction of protein sulfhydryl groups with Ellman's Reagent. Methods in Enzymol. 1976, 25, 457-464). The assays were performed in 96 well microtiter plates and rates of hydrolysis were monitored at 405 nm on a Biotek Synergy H1 plate reader. Hydrolysis rates were reported as change in mOD/min. The assay was conducted in 100 mM HEPES, 500 mM NaCl, pH 7.5 containing 10% DMSO in a final volume of 50 μL per well.
# An IC50, a compound concentration which inhibits 50% of the enzymatic activity, was calculated. Compounds in the examples were tested a minimum of three times.
# Sequence of Factor D (P00746 26-253): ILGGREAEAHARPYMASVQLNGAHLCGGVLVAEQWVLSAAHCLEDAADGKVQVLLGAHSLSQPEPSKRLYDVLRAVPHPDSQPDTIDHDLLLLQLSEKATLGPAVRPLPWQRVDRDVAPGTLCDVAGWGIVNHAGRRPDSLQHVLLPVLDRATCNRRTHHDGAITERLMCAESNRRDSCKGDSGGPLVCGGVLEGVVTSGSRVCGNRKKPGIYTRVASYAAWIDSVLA
row,Structure (SMILES),IC50
1,"Cc1ccc2c(n1)c1c(N)ncnc1n2CC(=O)N1[C@H](C(=O)Nc2cccc(Br)n2)C[C@@]2(C)C[C@@H]12 [Compound 286a, (1R,3S,5R)-2-(2-(4-amino-6-methyl-9H-pyrido[2′,3′:4,5]pyrrolo[2,3-d]pyrimidin-9-yl)acetyl)-N-(6-bromopyridin-2-yl)-5-methyl-2-azabicyclo[3.1.0]hexane-3-carboxamide]",< 0.1 µM
2,"NC[C@H]1C[C@@H](C(=O)Nc2cccc(Br)n2)N(C(=O)Cn2c3ccc(C(F)(F)F)cc3c3c(N)ncnc32)C1 [Compound 212e, (2S,4R)-1-(2-(4-amino-6-(trifluoromethyl)-9H-pyrimido[4,5-b]indol-9-yl)acetyl)-4-(aminomethyl)-N-(6-bromopyridin-2-yl)pyrrolidine-2-carboxamide]",0.1 to 1 µM
3,"Nc1ncnc2c1c1nc(-c3ccncc3)ccc1n2CC(=O)N1[C@@H]2C[C@@H]2C[C@H]1C(=O)Nc1cccc(Br)n1 [Compound 307c, (1R,3S,5R)-2-(2-(4-amino-6-(pyridin-4-yl)-9H-pyrido[2′,3′:4,5]pyrrolo[2,3-d]pyrimidin-9-yl)acetyl)-N-(6-bromopyridin-2-yl)-2-azabicyclo[3.1.0]hexane-3-carboxamide]",< 0.1 µM
4,"CCc1ccc2c(c1)c1c(N)ncnc1n2CC(=O)N1[C@@H]2C[C@@H]2C[C@H]1C(=O)Nc1cccc(Br)n1 [Compound 187c, (1R,3S,5R)-2-(2-(4-amino-6-ethyl-9H-pyrimido[4,5-b]indol-9-yl)acetyl)-N-(6-bromopyridin-2-yl)-2-azabicyclo[3.1.0]hexane-3-carboxamide]",< 0.1 µM
5,"Nc1ncnc2c1c(I)cn2CC(=O)N1C[C@H](F)C[C@H]1C(=O)NCc1cccc(Cl)c1F [Compound 148d, (2S,4R)-1-(2-(4-amino-5-iodo-7H-pyrrolo[2,3-d]pyrimidin-7-yl)acetyl)-N-(3-chloro-2-fluorobenzyl)-4-fluoropyrrolidine-2-carboxamide]",0.1 to 1 µM
6,"Nc1ncnc2c1c1cc(C(F)(F)F)ccc1n2CC(=O)N1C[C@@H](N)C[C@H]1C(=O)Nc1cccc(Br)n1 [Compound 180e, (2S,4S)-4-amino-1-(2-(4-amino-6-(trifluoromethyl)-9H-pyrimido[4,5-b]indol-9-yl)acetyl)-N-(6-bromopyridin-2-yl)pyrrolidine-2-carboxamide]",0.1 to 1 µM
7,"Cc1cc(F)c2c(c1)c1c(N)ncnc1n2CC(=O)N1[C@H](C(=O)Nc2cccc(Br)n2)C[C@@]2(C)C[C@@H]12 [Compound 392a, (1R,3S,5R)-2-(2-(4-amino-8-fluoro-6-methyl-9H-pyrimido[4,5-b]indol-9-yl)acetyl)-N-(6-bromopyridin-2-yl)-5-methyl-2-azabicyclo[3.1.0]hexane-3-carboxamide]",< 0.1 µM
8,"Nc1ncnc2c1c1cc(C(F)(F)F)ccc1n2CC(=O)N1[C@@H]2C[C@@H]2C[C@H]1C(=O)Nc1ccnc(Br)c1 [Compound 259d, (1R,3S,5R)-2-(2-(4-amino-6-(trifluoromethyl)-9H-pyrimido[4,5-b]indol-9-yl)acetyl)-N-(2-bromopyridin-4-yl)-2-azabicyclo[3.1.0]hexane-3-carboxamide]",0.1 to 1 µM
9,"Nc1ncnc2c1ccn2CC(=O)N1[C@@H]2C[C@@H]2C[C@H]1C(=O)NCc1cccc(Cl)c1F [Compound 81a, (1R,3S,5R)-2-(2-(4-amino-7H-pyrrolo[2,3-d]pyrimidin-7-yl)acetyl)-N-(3-chloro-2-fluorobenzyl)-2-azabicyclo[3.1.0]hexane-3-carboxamide]",< 0.1 µM
10,"Cc1ncc(-c2cc(C)c3c(c2)c2c(N)ncnc2n3CC(=O)N2[C@H](C(=O)Nc3nc(Br)ccc3C)C[C@@]3(C)C[C@@H]23)cn1 [Compound 311a, (1R,3S,5R)-2-(2-(4-amino-8-methyl-6-(2-methylpyrimidin-5-yl)-9H-pyrimido[4,5-b]indol-9-yl)acetyl)-N-(6-bromo-3-methylpyridin-2-yl)-5-methyl-2-azabicyclo[3.1.0]hexane-3-carboxamide]",< 0.1 µM
11,"Cc1ncc(-c2cn(CC(=O)N3C[C@H](F)C[C@H]3C(=O)Nc3nc(Br)ccc3C)c3ncnc(N)c23)cn1 [Compound 118a, (2S,4R)-1-(2-(4-amino-5-(2-methylpyrimidin-5-yl)-7H-pyrrolo[2,3-d]pyrimidin-7-yl)acetyl)-N-(6-bromo-3-methylpyridin-2-yl)-4-fluoropyrrolidine-2-carboxamide]",> 1 µM
12,"C[C@@]12C[C@@H](C(=O)Nc3cccc(Br)n3)N(C(=O)Cn3c4ccc(-c5cccnc5)nc4c4c(N)ncnc43)[C@@H]1C2 [Compound 372a, (1R,3S,5R)-2-(2-(4-amino-6-(pyridin-3-yl)-9H-pyrido[2′,3′:4,5]pyrrolo[2,3-d]pyrimidin-9-yl)acetyl)-N-(6-bromopyridin-2-yl)-5-methyl-2-azabicyclo[3.1.0]hexane-3-carboxamide]",0.1 to 1 µM
13,"COc1cccc(-c2cc(C)c3c(c2)c2c(N)ncnc2n3CC(=O)N2[C@@H]3C[C@@H]3C[C@H]2C(=O)Nc2cccc(Br)n2)c1 [Compound 341c, (1R,3S,5R)-2-(2-(4-amino-6-(3-methoxyphenyl)-8-methyl-9H-pyrimido[4,5-b]indol-9-yl)acetyl)-N-(6-bromopyridin-2-yl)-2-azabicyclo[3.1.0]hexane-3-carboxamide]",< 0.1 µM
14,"Cc1ncc(NC(=O)[C@@H]2C[C@H]3C[C@H]3N2C(=O)Cn2c3ncnc(N)c3c3cc(C(F)(F)F)cc(C)c32)nc1Br [Compound 313b, (1R,3S,5R)-2-(2-(4-amino-8-methyl-6-(trifluoromethyl)-9H-pyrimido[4,5-b]indol-9-yl)acetyl)-N-(6-bromo-5-methylpyrazin-2-yl)-2-azabicyclo[3.1.0]hexane-3-carboxamide]",< 0.1 µM
15,"C[C@@]12C[C@@H](C(=O)Nc3cccc(Br)n3)N(C(=O)Cn3c4cc(C(F)(F)F)ccc4c4c(N)ncnc43)[C@@H]1C2 [Compound 199a, (1R,3S,5R)-2-(2-(4-amino-7-(trifluoromethyl)-9H-pyrimido[4,5-b]indol-9-yl)acetyl)-N-(6-bromopyridin-2-yl)-5-methyl-2-azabicyclo[3.1.0]hexane-3-carboxamide]",< 0.1 µM
16,"COCc1ccc2c(c1)c1c(N)ncnc1n2CC(=O)N1[C@@H]2C[C@@H]2C[C@H]1C(=O)Nc1cccc(Br)n1 [Compound 339g, (1R,3S,5R)-2-(2-(4-amino-6-(methoxymethyl)-9H-pyrimido[4,5-b]indol-9-yl)acetyl)-N-(6-bromopyridin-2-yl)-2-azabicyclo[3.1.0]hexane-3-carboxamide]",< 0.1 µM
17,"Nc1ncnc2c1c1cc(C(F)(F)F)ccc1n2CC(=O)N1[C@@H]2C[C@@H]2C[C@H]1C(=O)Nc1cccc(Cl)n1 [Compound 267c, (1R,3S,5R)-2-(2-(4-amino-6-(trifluoromethyl)-9H-pyrimido[4,5-b]indol-9-yl)acetyl)-N-(6-chloropyridin-2-yl)-2-azabicyclo[3.1.0]hexane-3-carboxamide]",< 0.1 µM
18,"Cc1cc(C(F)(F)F)cc2c3c(N)ncnc3n(CC(=O)N3[C@H](C(=O)Nc4cncc(Br)n4)C[C@@]4(C)C[C@@H]34)c12 [Compound 296a, (1R,3S,5R)-2-(2-(4-amino-8-methyl-6-(trifluoromethyl)-9H-pyrimido[4,5-b]indol-9-yl)acetyl)-N-(6-bromopyrazin-2-yl)-5-methyl-2-azabicyclo[3.1.0]hexane-3-carboxamide]",< 0.1 µM
19,"COc1cc(C)c2c(c1)c1c(N)ncnc1n2CC(=O)N1[C@H](C(=O)Nc2cccc(Br)n2)C[C@@]2(C)C[C@@H]12 [Compound 258a, (1R,3S,5R)-2-(2-(4-amino-6-methoxy-8-methyl-9H-pyrimido[4,5-b]indol-9-yl)acetyl)-N-(6-bromopyridin-2-yl)-5-methyl-2-azabicyclo[3.1.0]hexane-3-carboxamide]",< 0.1 µM
20,"Nc1ncnc2c1ncn2CC(=O)N1[C@@H]2C[C@@H]2C[C@H]1C(=O)NCc1cccc(Cl)c1F [Compound 91a, (1R,3S,5R)-2-(2-(6-amino-9H-purin-9-yl)acetyl)-N-(3-chloro-2-fluorobenzyl)-2-azabicyclo[3.1.0]hexane-3-carboxamide]",< 0.1 µM
21,"Nc1ncnc2c1c(-c1ccoc1)cn2CC(=O)N1C[C@H](F)C[C@H]1C(=O)NCc1cccc(Cl)c1F [Compound 143d, (2S,4R)-1-(2-(4-amino-5-(furan-3-yl)-7H-pyrrolo[2,3-d]pyrimidin-7-yl)acetyl)-N-(3-chloro-2-fluorobenzyl)-4-fluoropyrrolidine-2-carboxamide]",0.1 to 1 µM

# Reference: US12679843B2, “Pyrrolopyrimidine amines as complement inhibitors” (BioCryst Pharmaceuticals, Inc., priority 2020, dated 2026)
